The values below come from ChEMBL document CHEMBL4020736, “Synthesis and biological evaluation of novel selective androgen receptor modulators (SARMs) Part III: Discovery of 4-(5-oxopyrrolidine-1-yl)benzonitrile derivative 2f as a clinical candidate” (Bioorg Med Chem, 2017).

A short description of data set [1]: Volume of distribution at steady state in cynomolgus monkey at 0.1 mg/kg, iv by LC-MS/MS analysis. The data set is classed as ADME, organism-based, Macaca fascicularis. The note with it: in vivo, read-out: Vdss.
The test system of data set [2] is Rattus norvegicus. As to the kind of experiment: Androgenic activity in castrated CD(SD)IGS rat assessed as effect on prostate weight at 0.15 to 15 mg/kg, po qd for 7 days co-treated with testosterone propionate by Harshberger assay. The data set is classed as ADME, organism-based. The settings on record: in vivo, 168 h.
Data set [3] is described as follows: AUC (0 to 24 hrs) in cynomolgus monkey at 1 mg/kg, po by LC-MS/MS analysis. The note with it: in vivo. The data set is classed as ADME, organism-based, Macaca fascicularis. The arrangement: dose 1 mg/kg, time < 24 hr, route oral.
For a further data set, the target named is T1, Glucocorticoid receptor (Homo sapiens, UniProt P04150).
T1 sequence (P04150 whole entry): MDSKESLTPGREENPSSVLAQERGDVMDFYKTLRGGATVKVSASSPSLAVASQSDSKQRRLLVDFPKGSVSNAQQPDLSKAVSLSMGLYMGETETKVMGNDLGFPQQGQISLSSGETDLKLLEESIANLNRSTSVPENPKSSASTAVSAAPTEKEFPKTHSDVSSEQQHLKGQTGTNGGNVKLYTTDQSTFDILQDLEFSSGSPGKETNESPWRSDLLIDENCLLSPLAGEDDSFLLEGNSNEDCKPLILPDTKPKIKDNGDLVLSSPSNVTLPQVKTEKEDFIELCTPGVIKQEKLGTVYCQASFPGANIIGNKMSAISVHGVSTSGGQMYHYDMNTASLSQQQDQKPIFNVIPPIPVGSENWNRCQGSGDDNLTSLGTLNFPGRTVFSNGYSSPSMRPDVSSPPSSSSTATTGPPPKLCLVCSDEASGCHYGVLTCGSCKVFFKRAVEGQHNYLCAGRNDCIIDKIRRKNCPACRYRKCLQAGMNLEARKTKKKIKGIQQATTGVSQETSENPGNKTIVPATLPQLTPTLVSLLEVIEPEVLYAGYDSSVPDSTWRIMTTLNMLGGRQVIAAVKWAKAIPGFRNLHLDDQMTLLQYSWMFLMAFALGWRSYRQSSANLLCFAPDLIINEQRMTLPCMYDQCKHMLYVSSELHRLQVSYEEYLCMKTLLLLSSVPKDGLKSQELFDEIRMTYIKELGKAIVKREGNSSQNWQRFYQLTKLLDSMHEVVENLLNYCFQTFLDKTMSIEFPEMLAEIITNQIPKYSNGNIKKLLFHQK
As to the kind of experiment: Binding affinity to GR (unknown origin).

Another data set relates to Rhesus monkey. Briefly: Toxicity in monkey assessed as convulsion administered via oral gavage. The arrangement: species or system Macaca mulatta. The note with it: in vivo.
The subject of data set [4] is Rattus norvegicus. Briefly: Induction of sexual behavior in castrated CD(SD)IGS rat assessed as pseudopregnancy rate at 5 mg/kg, po qd for 21 days measured on day 18 to 21 relative to control. Format: functional.
Data set [5] is described as follows: AUC (0 to 24 hrs) in Beagle dog at 0.1 mg/kg, iv by LC-MS/MS analysis. The data set is classed as ADME, organism-based, Canis lupus familiaris. The arrangement: time < 24 hr, dose 0.1 mg/kg, route intravenous. The note with it: in vivo.
Data set [6] has as its system Rattus norvegicus. As to the kind of experiment: Anabolic effect in castrated CD(SD)IGS rat assessed as levator ani muscle weight at 2.5 mg/kg, po bid for 4 days co-treated with testosterone propionate by Harshberger assay relative to control. The data set is classed as functional.
Data set [7] can be described thus: AUC (0 to 24 hrs) in Crl:CD(SD) rat at 0.1 mg/kg, iv by LC-MS/MS analysis. Format: ADME, organism-based. The arrangement: dose 0.1 mg/kg, time < 24 hr, route intravenous. The note with it: in vivo.

As usually defined, the AUC(0-t) is exposure summed from dosing to a finite time, without extrapolation to infinity. What is called IC50 is the concentration that inhibits the measured activity by half. On to `CC[C@H]1[C@@H](O)CC(=O)N1c1ccc(C#N)c(C(F)(F)F)c1`, for which the Vd in [1] is 1.47 L/kg. For the same compound, the Activity result in the data set with Rattus norvegicus [2] was “Non-Toxic”; in the data set with Rhesus monkey, “Toxic”; in the data set on Rattus norvegicus [4] it was 86%; with Rattus norvegicus [6] it was 129%. Also, the AUC(0-t) at 24 h in [3] was 558 ng·h/mL; in data set [5], 150 ng·h/mL; in data set [7], 108 ng·h/mL. The IC50 on Glucocorticoid receptor is over 10 µM.
